Data taken from patent publication US9403756B2, “N-phenyl anthranilic acid derivatives and uses thereof” (Ramot at Tel-Aviv University Ltd., priority 2007, dated 2016).

Legend:
[1] = test system: DRG neurons; assay: Current-clamp recordings in cultured DRG neurons; format: cell-based, rat; conditions: for rheobase current to generate a single spike: 2 ms injection
Method: For dorsal root ganglion (DRG) neuronal cultures, ganglia were dissected from 2-5 day-old Sprague-Dawley rats killed by decapitation. DRGs were placed in Hank's balanced saline solution (HBSS) and prepared by enzymatic dissociation. Briefly, after 30 minutes incubation in 5 mg/ml dispase, 2 mg/ml collagenase type 1A and 0.1 mg/ml DNase (Invitrogen/Gibco, Carlsbad, Calif.) in Ca^2+ and Mg^2+-free HBSS, the ganglia were mechanically triturated with a fire-polished glass Pasteur pipette. The ganglia were then centrifuged for 5 minutes at 80×g and resuspended in DMEM supplemented with 2 mM L-glutamine, 16.5 mM NaHCO3, 6 g/l glucose, 5 ml penicillin/streptomycin and 10% fetal calf serum.
For electrophysiological recording, dissociated neurons were plated on 13 mm glass coverslips, previously coated with poly-D-lysine (1 mg/ml) and laminin (10 μg/ml) and used at 1-2 days in culture.
For current-clamp recordings in primary cultured neurons, the patch pipettes were filled with (in mM): 135 KCl, 1 K2ATP, 1 MgATP, 2 EGTA, 1.1 CaCl2, 5 glucose, 10 HEPES, adjusted with KOH at pH 7.4 (315 mOsm). The external solution contained (in mM): 150 NaCl, 2.5 KCl, 2 CaCl2, 2 MgCl2, 15 glucose, 10 HEPES, adjusted with NaOH at pH 7.4 (325 mOsm). Recordings were sampled at 5 kHz and filtered at 2 KHz via a 4-pole Bessel low pass filter. A liquid junction potential of about −15.6 mV was measured between the intracellular and saline solutions and corrected on-line.
For evoking spike discharges, 75-200 pA square depolarizing current pulses were injected into neurons for 400 ms. For rheobase current measurements, 100-1100 pA square depolarizing current pulses were injected into neurons for 2 ms.

[2] = test system: COX; assay: Anti-COX activity in cell culture, CT26 and D122 cell lines (results in words); format: cell-based, mouse; conditions: COX-dependent synthesis of PGE2
Method: Mouse colon adenocarcinoma CT26 and mouse lewis lung carcinoma D122 cells were grown in DMEM (D122) or RPMI (CT26) supplemented with 10% fetal calf serum, 4% glutamine, 1% penicillin-streptomycin-nystatin and 3% non essential amino acids (D122) and were kept in a humidified 37° C. incubator with 5% CO2. For the COX activity assays, cells were grown onto 24 multi-well plates.
Before the assay, cells were washed with serum-free medium; then the tested compounds were added to the medium and incubated for 30 minutes at 37° C. after which 30 μM arachidonic acid were added and incubated for additional 20 minutes. At the end of the incubation period, 10 μM Indomethacin were added to stop the reaction and medium was transferred to another 24 multi-well plate for measuring PGE2 production by radioimmunoassay (DuPont-NEN; Boston Mass.) according to manufacturer protocol. Protein determination was assayed on scraped cells using the Bradford method (1976) [Bradford M. M. 1976. Anal. Biochem. 72:248-254], with BSA as a standard and was used to normalize the amount of PGE2 production.
The anti-COX activity of NH25, NH29 and NH30 was examined in Mouse colon adenocarcinoma CT26 and mouse lewis lung carcinoma D122 cell lines. Cells were incubated with each of the tested compounds and the level of the COX-dependent synthesis of PGE2 was quantified using radioimmunoassay techniques.

[3] = test system: primary hippocampal neurons; assay: Spontaneous and miniature EPSCs/IPSCs in primary hippocampal neurons, voltage-clamp; format: cell-based, rat; conditions: for effect on amplitude of miniature EPSCs and IPSCs: NH29 at 25 μM, data not shown
Method: For hippocampal neuronal cultures, Sprague-Dawley rat embryos (E18) were removed by caesarian section and their hippocampi were dissected out. The tissue was digested with papain for 20 min, triturated to a single-cell suspension, and plated at a density of 40,000 cells per ml on a substrate of bovine collagen type IV and 100 μg/ml poly-L-lysine in 13 mm diameter glass coverslips of a 24-multiwell plate. The culture medium consisted of Modified Eagle's Medium containing 5% horse serum (Biological Industries, Beit HaEmek, Israel), B-27 neuronal supplement (Invitrogen, Carlsbad, Calif.), 100 U/ml penicillin, 100 μg/ml streptomycin, and 2 mM glutamine. D-glucose was supplemented to a final concentration of 6 g/l. Cytosine-1-D-arabinofuranoside (5 μM) was added after 5 days to arrest glial cell proliferation.
For electrophysiological recordings hippocampal neurons were used at 10-14 days in culture. All cultures were maintained at 37° C. in humidified air containing 5% CO2.
Spontaneous excitatory postsynaptic currents (EPSCs) were recorded in the voltage-clamp configuration of the whole-cell patch-clamp technique at a holding potential of −70 mV as previously described; the extracellular solution contained (in mM) 160 NaCl, 2.5 KCl, 10 HEPES, 10 glucose, 2 CaCl2; pH 7.3 (325 mOsm), to which 30 μM picrotoxin and 10 μM bicuculline methyl iodide were added. The intracellular solution consisted (in mM) of 130 K-gluconate, 10 KCl, 1.1 EGTA, 10 HEPES, 1 MgCl2, 2 Na2ATP, 0.1 CaCl2 and 5 QX314Br to block Na^+ currents; pH 7.2 (315 mOsm).
Spontaneous inhibitory postsynaptic currents (IPSCs) were recorded at a holding potential of −70 mV; the extracellular solution contained (in mM) 160 NaCl, 2.5 KCl, 10 HEPES, 10 glucose, 2 CaCl2; pH 7.3 (325 mOsm), to which 10 μM NBQX and 10 μM AP-5 were added. The intracellular solution consisted (in mM) of 144 CsCl, 10 HEPES, 1.1 EGTA, 0.1 CaCl2, 5 MgCl2, 2 Na2ATP, 5 QX314 Br; pH 7.3 (315 mOsm).
Data analysis was performed using the Clampfit program (pClamp 9.2, Molecular Devices), Microsoft Excel (Microsoft) and Prism 4.0 (GraphPad). Chord conductance (G) was calculated by using the following equation: G=I/(V−Vrev) where I corresponds to the current amplitude measured at the end of the pulse and Vrev, the calculated reversal potential. G was estimated at various test voltages V and then, normalized to a maximal conductance value, Gmax. Activation curves were fitted by one Boltzmann distribution: G/Gmax=1/{1+exp[(V50−V)/s]} where V50 is the voltage at which the current is half-activated and s is the slope factor. All data were expressed as mean±SEM. Statistically significant differences were assessed by Student's t-test. Analysis of sEPSCs and sIPSCs was done using the Clampfit program (pClamp 9.2, Molecular Devices) and included evaluation of the individual events as well as the average event amplitude and the integral of the event (total charge transfer).
Because of their slow activation and their lack of inactivation, M-channels could modulate neuronal activity during repetitive spike discharge and tune neurotransmitter release. FIG. 6 illustrates the effect of NH25 on synaptic transmission and transmitter release. Spontaneous excitatory and inhibitory post-synaptic currents (sEPSCs and sIPSCs) were recorded from dense cultures of primary hippocampal neurons, using the voltage-clamp configuration of the whole-cell patch-clamp technique.

O=C(Cc1cc([N+](=O)[O-])ccc1Nc1c(Cl)cccc1Cl)OCCO [NH25]
rheobase current to generate a single spike ([1]; 25 μM NH25, control 400±41 pA, n=12): 577±38 pA
number of evoked action potentials ([1]; 25 μM NH25, 75-200 pA for 400 ms, control 10.4±0.8, n=8): 0.8±0.3
resting membrane potential ([1]; 25 μM NH25, control −60.6±0.3 mV, n=13): −69.0±0.3 mV
hyperpolarization of resting membrane potential ([1]; 25 μM NH25, n=13): −8.3±0.2 mV
anti-COX activity [2]: exhibited anti-COX activity comparable to that of Diclofenac
effect on amplitude and kinetics of sIPSCs ([3]; 25 μM): did not significantly affect
reduction of charge transfer within the bursts of sEPSCs ([3]; 25 μM): about 50%
reduction of total charge transfer of sEPSCs ([3]; 25 μM): about 50%
effect on burst duration of sEPSCs ([3]; 25 μM, holding potential −70 mV): markedly reduced
effect on amplitude of miniature EPSCs and IPSCs [3]: did not affect
inhibition at 25 µM ([3]; Rattus norvegicus, Hippocampal neuron, 25 μM, holding potential −70 mV, read-out: inhibition of sIPSCs frequency of spontaneous occurrence): > 98%

O=C(Cc1cc([N+](=O)[O-])cc([N+](=O)[O-])c1Nc1c(Cl)cc([N+](=O)[O-])cc1Cl)NCCO [NH29]
rheobase current to generate a single spike ([1]; 25 μM NH29, control 178±36 pA, n=8): 300±55 pA
resting membrane potential ([1]; 25 μM NH29, control −56.0±2.2 mV, n=7): −65.0±3.4 mV
hyperpolarization of resting membrane potential ([1]; 25 μM NH29, n=7): −9.0±1.9 mV
anti-COX activity [2]: did not exhibit anti-COX activity
effect on amplitude of miniature EPSCs and IPSCs [3]: did not affect
